Here are results for 60 compounds from the METLIN SMRT retention time set (Domingo-Almenara et al. 2019).

The structures appear in SMILES notation.

This data set can be described thus: gradient 5% acetonitrile 3 min, to 50% in 2 min, to 85% in 15 min, held 3 min, 100 µL/min. To be noted: column: Zorbax Extend-C18 2.1 x 50 mm; eluents: water / acetonitrile, 0.1% formic acid. In short, it runs like this: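 Over 3 months, pure standards in mixtures of ~100 molecules were run by HPLC coupled to a quadrupole time-of-flight mass spectrometer in positive and negative ionization mode. The column was a Zorbax Extend-C18 (2.1 × 50 mm, 1.8 μm) at 100 μL/min, eluted with water and acetonitrile each holding 0.1% formic acid, with 40 μL dead and 900 μL dwell volumes. Retention time was determined from adduct peaks chosen by software and checked manually.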
`CCc1nc(-c2ccc(S(=O)(=O)N3CCC(C(=O)NCc4ccc5c(c4)OCO5)CC3)cc2)no1` came in with an RP-LC retention time of 929 s.
The figure for `COc1ccc(-c2noc(C3CC(=O)N(c4ccc(Cl)cc4)C3)n2)cc1OC` (stereo not given) is 950 s; for `COc1ccc(OCc2nc(-c3ccc(-c4csc(C5CC5)n4)cc3)no2)cc1` it is 1300 s; for `Cc1cc(F)ccc1NC(=O)c1cnc2c(c1)c(=O)n(C)c(=O)n2-c1ccccc1` it is 854 s.
The result for `Cc1cc(C)c(C)c(S(=O)(=O)NCCc2cn(CC(C)C)c3ncccc23)c1C` reads 1120 s.
The figure for `CCCN1CCN(CCCNC(=O)c2noc3c2CCCCC3)CC1` is 594 s.
`CC(C)C(=O)Nc1nc2cc(NC(=O)C3CCN(S(=O)(=O)N4CCCC4)CC3)ccc2s1`: the RP-LC retention time amounted to 805 s.
The result for `O=C(CN1CCc2ccccc2C1C(=O)N1CCCCC1)NCc1ccc(F)cc1Cl` (stereo not given) reads 918 s; that for `Cc1ccc(C)c(S(=O)(=O)N2CCc3nc[nH]c3C2)c1`, 627 s; that for `CC(C)NC(=O)C1CCN(c2nc3ccc(-c4cccc(F)c4)nc3s2)CC1`, 942 s.
The figure for `CCCn1nc(CNC(=O)c2ccc3c(c2)OCO3)c2ccccc21` is 843 s; for `O=C(O)Cc1sc(Nc2ccccc2)nc1-c1ccccc1` it is 858 s.
The result for `Cc1ccc(NC(=O)Cn2c(N3CCCC3)nc(C)cc2=O)c(C)c1` reads 669 s.
In turn, `CCC1CN(C(=O)N2CCC(C(=O)NCCCN3CCCCC3)CC2)c2ccccc2O1` (stereo not given) had an RP-LC retention time of 643 s.
The result for `CCCCN(C)c1ccc(NC(=O)CC(C)C)c(C(=O)O)c1` reads 729 s; that for `Cc1ccc(-c2nnc(-c3ccccc3)o2)cc1S(=O)(=O)N1CCCCC1`, 1100 s.
In the case of `CCC(=O)n1nc(-c2cccc(C)c2)nc1N`, the RP-LC retention time worked out at 890 s.
The result for `Cc1ccc(NC(=O)N2CCCC(C)(C(=O)NCc3ccc(F)cc3)C2)cc1F` (stereo not given) reads 959 s; that for `CCc1nn2c(CNS(=O)(=O)Cc3cc(F)cc(F)c3)c(-c3ccccc3)nc2s1`, 1010 s.
The figure for `CC(C)Cn1nc(CNC(=O)c2cnccn2)c2ccccc21` is 826 s.
The figure for `COc1ccc(C2(C(=O)N3CCC(c4nc(CCOCc5ccccc5)no4)C3)CC2)cc1` (stereo not given) is 958 s.
`COc1cc(OC)cc(-c2nnc(Cc3nc(-c4ccc(F)cc4)no3)o2)c1` returned an RP-LC retention time of 1040 s.
The result for `COCCN1C(=O)[C@H]2CN(Cc3ccc(C)c(C)c3)C[C@H]2C1=O` reads 577 s; that for `Cc1cc(C)cc(N2CCC(NC(=O)c3ccc(Br)o3)C2=O)c1` (stereo not given), 894 s; that for `CC(C)CNC(=O)CCc1nc2ccccc2n(CC(=O)NCCc2ccc(Cl)cc2)c1=O`, 855 s.
The result for `CC1CCC(NC(=O)C2CCCN(S(=O)(=O)c3c[nH]c(C(=O)N4CCCCCC4)c3)C2)CC1` (stereo not given) reads 938 s; that for `CC(C)c1ccc(OCC(=O)Nc2nnc(C3CC(=O)N(c4ccc(F)cc4)C3)o2)cc1` (stereo not given), 904 s; that for `COc1ccc(CNC(=O)Cn2nc3c(N4CCCCCC4)nccn3c2=O)cc1`, 679 s.
Compound `O=C(Nc1ccc(F)c(Cl)c1)C1CCCN(c2ncc(-c3ccc(F)cc3)cn2)C1` (stereo not given) displayed an RP-LC retention time of 1230 s.
The result for `Cc1ccc(NS(=O)(=O)c2ccc(-c3c(C)noc3C)cc2)c(Br)c1` reads 1020 s; that for `Cc1cccc(S(=O)(=O)N2CCc3c(c(CN4CCCC4)nn3C)C2)c1`, 810 s; that for `COC(=O)c1ccc(NC(=O)N2CC(C)Oc3ccccc32)cc1` (stereo not given), 879 s.
The result for `CCOc1ccccc1CNC(=O)CN1CCN(Cc2cccc(Cl)c2)C1=O` reads 910 s; that for `Cc1sc(NC(=O)Cc2csc(-c3ccccc3)n2)nc1-c1ccc(F)cc1`, 1200 s.
`COc1ccc(-c2nsc(SCC(=O)N3CCCCCC3)n2)cc1` registered an RP-LC retention time of 846 s.
The result for `O=C(c1ccncc1)N1CCc2cc(-c3csc(C4CC4)n3)ccc21` reads 848 s.
The figure for `CCN(CC)C(=O)C1CCCN(C(=O)c2nn(C)c3c2CN(C(=O)C2CCC2)CC3)C1` (stereo not given) is 681 s; for `O=C1COc2ccccc2N1Cc1nc(-c2ccc(F)cc2)no1` it is 984 s; for `Nc1ncnc2c1ncn2C=C=CCO` it is 581 s.
The result for `COCc1cn(C2CN(C(=O)c3ccc(C)s3)C2)nn1` reads 649 s; that for `COc1ccc(C(=O)Nc2cccn3c(C4CCC4)nnc23)cc1F`, 769 s.
On to `CS(=O)(=O)NCc1ccc2c(c1)CCN2C(=O)c1ccc(Cl)cc1`, for which the RP-LC retention time was 794 s.
The figure for `CCCN1C(=O)c2cc(C(=O)N3CCN(C4CCCCC4)CC3)nn2CC1(C)C(=O)NC1CCCC1` (stereo not given) is 660 s; for `O=C1CCSc2c1cccc2C(=O)N1CCOCC1` it is 601 s.
The result for `CCN(CC)C(=O)Cn1ccn2nc(-c3ccccc3)c(CO)c2c1=O` reads 721 s; that for `CC(C)n1nc(CNC(=O)c2ccco2)c2ccccc21`, 788 s.
The figure for `CCOc1ccc(-n2ccn3c(CC(C)CC(=O)NC4CCCC4)nnc3c2=O)cc1` (stereo not given) is 710 s; for `CCn1c(=O)c(=O)n(CC(=O)NCCN2CCCCC2)c2cccnc21` it is 565 s.
For `Cc1nn(CC(=O)NCCC2=CCCCC2)c(=O)c2c(-n3cccc3)n(-c3cccc(F)c3)nc12`, the RP-LC retention time was determined as 1090 s.
The figure for `CCS(=O)(=O)c1ccc2c(c1)N(Cc1nc(-c3cccc(C)c3)no1)C(=O)CO2` is 926 s; for `Oc1ccccc1-c1nc2ccc(Cl)cn2c1Nc1ccc(Cl)cc1` it is 1090 s; for `CCOc1ccc(C(=O)Nc2nc(-c3ccccc3)cs2)cc1Cl` it is 1260 s.
The figure for `CN(C)c1cccc(C(=O)Nc2cnn(-c3ncc(N4CCCC4)cn3)c2)c1` is 749 s; for `CN(CCNc1nc2ccncc2n(Cc2ccccc2)c1=O)C1CCCCC1` it is 573 s; for `Cc1c(Cc2ccccc2)[n+](=O)c2ccccc2n1[O-]` it is 1020 s.
The result for `Cc1ccc(NC(=O)N2CCC(n3cnc4ccc(C)cc4c3=O)CC2)cc1` reads 801 s; that for `COc1ccc(CNC(=O)C2(C)Oc3cccnc3N(C)C2=O)cc1` (stereo not given), 748 s.
On to `O=C(CCc1cccc2[nH]ccc12)Nc1ccc(N2CCOCC2)cc1`, for which the RP-LC retention time is 845 s.
The figure for `O=C(c1cncc(Br)c1)N1CCc2cc(-c3csc(C4CC4)n3)ccc21` is 1070 s; for `C[C@H](Cc1ccc(O)c(O)c1)[C@@H](C)Cc1ccc(O)c(O)c1` it is 878 s.
